Assay results reported in US9499554B2, “Anti-influenza compositions and methods” (priority 2013, dated 2016).
Values after ≈ are worked out from the molar mass of the structure shown.

System: A/NJ/15/2007 (H1N1-H274Y)
Format: cell-based, Influenza A

Compound: Nc1ncnc2c([C@@H]3N[C@H](CO)[C@@H](O)[C@H]3O)c[nH]c12 [compound 1, (2S,3S,4R,5R)-2-(4-Amino-5H-pyrrolo[3,2-d]pyrimidin-7-yl)-5-(hydroxymethyl)pyrrolidine-3,4-diol]
- EC50, antiviral activity in MDCK cells: 1.39 µg/mL (≈ 5.24 µM)
